Measurements: patent US6872711B2, “β-substituted β-aminoethyl phosphonate derivatives” (Ilex Oncology Research S.A., priority 2000, dated 2005)

Key:
[1] = test system: apo(a) secretion in primary cultures of Cynomolgus hepatocytes; test: Lowering the production of apo(a) in primary cultures of Cynomolgus hepatocytes (ELISA of culture medium); format: cell-based, Cynomolgus monkeys; details: Macaca fascicularis, Hepatocyte, tested at 20 μM, 6-24 hours incubation, one range stated for all listed compounds, read-out: lowering of apo(a) secretion (change vs control plates)
Protocol: The compounds of formula (I) were assayed for lowering the production of apo(a) in primary cultures of Cynomolgus hepatocytes.
Protocol: Hepatocytes were isolated from livers of male adult Cynomolgus monkeys by the two-step collagenase perfusion method according to C. Guguen-Guillouzo and A. Guillouzo “Methods for preparation of adult and fetal hepatocytes” p.1-12in “Isolated and Cultured Hepatocytes,” les editions Inserm Paris and John Libbey Eurotext London (1986).
The viability of cells was determined by Trypan blue staining. The cells were then seeded at a density of 1.5-2.10^5 viable cells per 2 cm^2 in 24 well tissue culture plates in a volume of 500 μl per well of Williams E tissue culture medium containing 10% fetal calf serum. Cells were incubated for 6-24 hours at 37° C. in a CO2 incubator (5% CO2) in the presence of 20 μM of the test compounds dissolved in ethanol. Four wells were used for each compound. Nicotinic acid and steroid hormones were used as references to validate the assay system since they are known to decrease Lp(a) in man. Control cells were incubated in the presence of ethanol only.
The amount of Lp(a) secreted in culture medium was directly assayed by ELISA using a commercially available kit. Cells were washed and lysed as described by A. L. White et al., Journal of Lipid Research vol. 34, p. 509-517, (1993) and the cellular content of Lp(a) was assayed as described above. Changes in Lp(a) concentration in culture medium are given as the percentage of value measured for the control plates.

| Compound | inhibition at 20 µM [1] [%] | melting point [°C] |
| --- | --- | --- |
| CCOc1cc(C(CP(=O)(OC(C)C)OC(C)C)Nc2cccnc2)cc(C)c1O (stereo not drawn) [Compound 21, diisopropyl β-(3-ethoxy-4-hydroxy-5-methylphenyl)-β-[N-(3-pyridyl)-amino]-ethylphosphonate] | 10 to 35 | 148 to 150 |
| CCOP(=O)(CC(Nc1cccnc1)c1cc(C)c(O)c(OC)c1)OCC (stereo not drawn) [Compound 9, diethyl β-(4-hydroxy-3-methoxy-5-methylphenyl)-β-[N-(3-pyridyl)-amino]-ethylphosphonate] | 10 to 35 | 156 to 158 |
| COc1cc(C(CP(=O)(OC(C)C)OC(C)C)Nc2cccnc2)cc(C)c1O (stereo not drawn) [Compound 10, diisopropyl β-(4-hydroxy-3-methoxy-5-methylphenyl)-β-[N-(3-pyridyl)-amino]-ethylphosphonate] | 10 to 35 | 135 to 137 |
| CCOc1cc(C(CP(=O)(OCC)OCC)Nc2cccnc2)cc(C)c1O (stereo not drawn) [Compound 20, diethyl β-(3-ethoxy-4-hydroxy-5-methylphenyl)-β-[N-(3-pyridyl)-amino]-ethylphosphonate] | 10 to 35 | 162 to 164 |
| CCOP(=O)(CC(Nc1cccnc1)c1cc(OC)c(OC)c(OC)c1)OCC (stereo not drawn) [Compound 18, diethyl β-(3,4,5-trimethoxyphenyl)-β-[N-(3-pyridyl)-amino]-ethylphosphonate] | 10 to 35 | 104 to 106 |
| CCOP(=O)(CC(Nc1cccnc1)c1cc(OC)c(O)c(OC)c1)OCC (stereo not drawn) [Compound 1, diethyl β-(3,5-dimethoxy-4-hydroxyphenyl)-β-[N-(3-pyridyl)-amino]-ethylphosphonate] | 10 to 35 | 164 to 166 |
| COc1cc(C(CP(=O)(OC(C)C)OC(C)C)Nc2cccnc2)cc(OC)c1O (stereo not drawn) [Compound 2, diisopropyl β-(3,5-dimethoxy-4-hydroxyphenyl)-β-[N-(3-pyridyl)-amino]-ethylphosphonate] | 10 to 35 | 138 to 140 |
| COc1cc(C(CP(=O)(OC(C)C)OC(C)C)Nc2cccnc2)cc(OC)c1OC (stereo not drawn) [Compound 19, diisopropyl β-(3,4,5-trimethoxyphenyl)-β-[N-(3-pyridyl)-amino]-ethylphosphonate] | 10 to 35 | 96 to 98 |
| CCOP(=O)(CC(Nc1cccnc1)c1cc(O)c(C)c(OC)c1)OCC (stereo not drawn) [Compound 34, diethyl β-(3-hydroxy-5-methoxy-4-methylphenyl)-β-[N-(3-pyridyl)-amino]-ethylphosphonate] | 10 to 35 | 146 to 147 |
| Cc1cc(C(CP(=O)(OC(C)C)OC(C)C)Nc2cccnc2)cc(C)c1O (stereo not drawn) [Compound 17, diisopropyl β-(3,5-dimethyl-4-hydroxyphenyl)-β-[N-(3-pyridyl)-amino]-ethylphosphonate] | 10 to 35 | 104 to 105 |
| CCOP(=O)(CC(Nc1cccnc1)c1ccc(C)c(O)c1C)OCC (stereo not drawn) [Compound 31, diethyl β-(2,4-dimethyl-3-hydroxyphenyl)-β-[N-(3-pyridyl)-amino]-ethylphosphonate] | 10 to 35 | – |
| CCOP(=O)(CC(Nc1cccnc1)c1cc(C)c(O)c(C)c1)OCC (stereo not drawn) [Compound 16, diethyl β-(3,5-dimethyl-4-hydroxyphenyl)-β-[N-(3-pyridyl)-amino]-ethylphosphonate] | 10 to 35 | 98 to 101 |
| CCOP(=O)(CC(Nc1cccnc1)c1cc(OC)c(CO)c(OC)c1)OCC (stereo not drawn) [Compound 37, diethyl β-(3,5-dimethoxy-4-hydroxymethylphenyl)-β-[N-(3-pyridyl)-amino]-ethylphosphonate] | 10 to 35 | – |
| CCOP(=O)(CC(Nc1cccnc1)c1cc(C(C)(C)C)c(OC)c(C(C)(C)C)c1)OCC (stereo not drawn) [Compound 30, diethyl β-(3,5-di-tert-butyl-4-methoxyphenyl)-β-[N-(3-pyridyl)-amino]-ethylphosphonate] | 10 to 35 | – |
